Measured values published in ChEMBL document CHEMBL6120946, “From Hit to Lead: Discovery of First-In-Class Furanone Glycoside D228 Derived from Chimonanthus salicifolius for the Treatment of Inflammatory Bowel Disease” (J Med Chem, 2024).
Active and inactive are the calls of the source. The calls are words filed in the database; no cut-off is given here.

Assays:
[1] = Cytotoxicity against mouse Splenocyte by MTT assay; type: toxicity, cell-based; details: splenocytes
[2] = system: B-cell line; experiment: Immunosuppressive activity in mouse B-lymphocyte assessed as reduction in LPS-induced cell proliferation incubated for 48 hrs; type: functional, cell-based
[3] = Selectivity ratio of CC50 for cytotoxicity against mouse Splenocyte to IC50 for immunosuppressive activity in mouse B-lymphocyte; type: toxicity; details: splenocytes (CC50) and B-lymphocytes (IC50)
[4] = Immunosuppressive activity in mouse T-lymphocyte assessed as reduction in concanavalin A-induced cell proliferation incubated for 48 hrs; type: functional, cell-based
[5] = Selectivity ratio of CC50 for cytotoxicity against mouse Splenocyte to IC50 for immunosuppressive activity in mouse T-lymphocyte; type: toxicity; details: splenocytes (CC50) and T-lymphocytes (IC50)
[6] = system: Mus musculus; experiment: Antiinflammatory activity in DSS-induced male C57BL/6 mouse model of inflammatory bowel disease assessed as recovery from body weight loss at 40 mg/kg/day, po measured after 7 days; type: functional, organism-based; details: time 7.0 day
[7] = system: Mus musculus; experiment: Antiinflammatory activity in DSS-induced male C57BL/6 mouse model of inflammatory bowel disease assessed as recovery from body weight loss at 40 mg/kg/day, po measured after 7 days relative to control; type: functional; details: time 7 day
[8] = system: Mus musculus; experiment: Antiinflammatory activity in DSS-induced male C57BL/6 mouse model of inflammatory bowel disease assessed as recovery in colon length at 40 mg/kg/day, po measured after 7 days relative to control; type: functional; details: time 7 day
[9] = system: Mus musculus; experiment: Antiinflammatory activity in DSS-induced male C57BL/6 mouse model of inflammatory bowel disease assessed as reduction in weight loss at 7.5 to 15 mg/kg/day, po via gavage measured upto 14 days; type: functional, organism-based; details: dose 7.5-15 mg/kg/day, time <= 14.0 day
[10] = system: Mus musculus; experiment: Antiinflammatory activity in DSS-induced male C57BL/6 mouse model of inflammatory bowel disease assessed as reduction in diarrhea at 7.5 to 15 mg/kg/day, po via gavage measured upto 14 days; type: functional, organism-based; details: dose 7.5-15 mg/kg/day, time <= 14.0 day
[11] = system: Mus musculus; experiment: Antiinflammatory activity in DSS-induced male C57BL/6 mouse model of inflammatory bowel disease assessed as reduction of bloody stool at 7.5 to 15 mg/kg/day, po via gavage measured upto 14 days; type: functional, organism-based; details: dose 7.5-15 mg/kg/day, time <= 14.0 day
[12] = system: Mus musculus; experiment: Antiinflammatory activity in DSS-induced male C57BL/6 mouse model of inflammatory bowel disease assessed as increase in colon length at 15 mg/kg/day, po via gavage measured upto 14 days relative to control; type: functional; details: time <= 14 day
[13] = system: Mus musculus; experiment: Antiinflammatory activity in DSS-induced male C57BL/6 mouse model of inflammatory bowel disease assessed as increase in colon length at 7.5 mg/kg/day, po via gavage measured upto 14 days relative to control; type: functional; details: time <= 14 day
[14] = system: Mus musculus; experiment: Antiinflammatory activity in male C57BL/6 mouse model of inflammatory bowel disease assessed as recovery of DSS-induced body weight loss at 40 mg/kg/day, po via gavage measured after 14 days relative to control; type: functional; details: time 14 day
[15] = system: Mus musculus; experiment: Antiinflammatory activity in DSS-induced male C57BL/6 mouse model of inflammatory bowel disease assessed as restoration of colon length at 40 mg/kg/day, po via gavage measured after 14 days relative to control; type: functional; details: time 14 day
[16] = system: Mus musculus; experiment: Antiinflammatory activity in DSS-induced male C57BL/6 mouse model of inflammatory bowel disease assessed as increase in colon length at 250 mg/kg/day, po via gavage measured upto 14 days relative to control; type: functional; details: time <= 14 day
[17] = Toxicity in female BALB/c mouse assessed as effect on ALP level at 0.5 g/Kg administered daily and measured after 5 weeks; details: in vivo, 500 mg/kg, 840 h
[18] = Toxicity in female BALB/c mouse assessed as effect on CREA level at 0.5 g/Kg administered daily and measured after 5 weeks; details: in vivo, 500 mg/kg, 840 h
[19] = Toxicity in female BALB/c mouse assessed as effect on GLU level at 0.5 g/Kg administered daily and measured after 5 weeks; details: in vivo, 500 mg/kg, 840 h
[20] = Toxicity in female BALB/c mouse assessed as effect on CK level at 0.5 g/Kg administered daily and measured after 5 weeks; details: in vivo, 500 mg/kg, 840 h
[21] = Toxicity in female BALB/c mouse assessed as effect on Na inorganic salt index at 0.5 g/Kg administered daily and measured after 5 weeks; details: in vivo, 500 mg/kg, 840 h
[22] = Toxicity in female BALB/c mouse assessed as effect on Cl inorganic salt index at 0.5 g/Kg administered daily and measured after 5 weeks; details: in vivo, 500 mg/kg, 840 h
[23] = Toxicity in male C57BL/6 mouse assessed as effect on ALP level at 0.5 g/Kg administered daily and measured after 5 weeks; details: in vivo, 500 mg/kg, 840 h
[24] = Toxicity in male C57BL/6 mouse assessed as effect on CREA level at 0.5 g/Kg administered daily and measured after 5 weeks; details: in vivo, 500 mg/kg, 840 h
[25] = Toxicity in male C57BL/6 mouse assessed as effect on GLU level at 0.5 g/Kg administered daily and measured after 5 weeks; details: in vivo, 500 mg/kg, 840 h
[26] = Toxicity in male C57BL/6 mouse assessed as effect on CK level at 0.5 g/Kg administered daily and measured after 5 weeks; details: in vivo, 500 mg/kg, 840 h
[27] = Toxicity in male C57BL/6 mouse assessed as effect on Na inorganic salt index at 0.5 g/Kg administered daily and measured after 5 weeks; details: in vivo, 500 mg/kg, 840 h
[28] = Toxicity in male C57BL/6 mouse assessed as effect on Cl inorganic salt index at 0.5 g/Kg administered daily and measured after 5 weeks; details: in vivo, 500 mg/kg, 840 h
[29] = system: Mus musculus; experiment: Antiinflammatory activity in DSS-induced male C57BL/6 mouse model of inflammatory bowel disease assessed as decrease in p38 phosphorylation level at 50 to 100 microM/Kg by Western blot analysis; type: functional, organism-based; details: dose 50-100 µM/Kg
[30] = system: Mus musculus; experiment: Antiinflammatory activity in DSS-induced male C57BL/6 mouse model of inflammatory bowel disease assessed as downregulation of TRAF6 expression at 50 to 100 microM/Kg by Western blot analysis; type: functional, organism-based; details: dose 50-100 µM/Kg
[31] = system: Mus musculus; experiment: Antiinflammatory activity in DSS-induced male C57BL/6 mouse model of inflammatory bowel disease assessed as downregulation of MyD88 expression at 50 to 100 microM/Kg by Western blot analysis; type: functional, organism-based; details: dose 50-100 µM/Kg
[32] = system: Mus musculus; experiment: Antiinflammatory activity in DSS-induced male C57BL/6 mouse model assessed as effect on JNK phosphorylation level at 50 to 100 microM/Kg by Western blot analysis; type: functional, organism-based; details: dose 50-100 µM/Kg
[33] = system: Mus musculus; experiment: Antiinflammatory activity in DSS-induced male C57BL/6 mouse model assessed as inhibition of TNF-alpha level in colon at 50 to 100 microM/Kg; type: functional, organism-based; details: dose 50-100 µM/Kg
[34] = system: Mus musculus; experiment: Antiinflammatory activity in DSS-induced male C57BL/6 mouse model assessed as inhibition of IL-6 level in colon at 50 to 100 microM/Kg; type: functional, organism-based; details: dose 50-100 µM/Kg
[35] = system: Mus musculus; experiment: Antiinflammatory activity in DSS-induced male C57BL/6 mouse model assessed as inhibition of IL-17A level in colon at 50 to 100 microM/Kg; type: functional, organism-based; details: dose 50-100 µM/Kg
[36] = system: Mus musculus; experiment: Antiinflammatory activity in DSS-induced male C57BL/6 mouse model assessed as inhibition of IL-22 level in colon at 50 to 100 microM/Kg; type: functional, organism-based; details: dose 50-100 µM/Kg
[37] = system: Mus musculus; experiment: Antiinflammatory activity in DSS-induced male C57BL/6 mouse model assessed as increase in IL-10 level in colon at 50 to 100 microM/Kg; type: functional, organism-based; details: dose 50-100 µM/Kg
[38] = system: Mus musculus; experiment: Antiinflammatory activity in DSS-induced male C57BL/6 mouse model of inflammatory bowel disease assessed as amelioration of structural loss of colon at 50 to 100 microM/Kg by H and E staining based analysis; type: functional, organism-based; details: dose 50-100 µM/Kg
[39] = system: Mus musculus; experiment: Antiinflammatory activity in DSS-induced male C57BL/6 mouse model of inflammatory bowel disease assessed as amelioration of crypts disruption at 50 to 100 microM/Kg by H and E staining based analysis; type: functional, organism-based; details: dose 50-100 µM/Kg
[40] = system: Mus musculus; experiment: Antiinflammatory activity in DSS-induced male C57BL/6 mouse model of inflammatory bowel disease assessed as amelioration of infiltration of inflammatory cells at 50 to 100 microM/Kg by H and E staining based analysis; type: functional, organism-based; details: dose 50-100 µM/Kg
[41] = system: Mus musculus; experiment: Antiinflammatory activity in DSS-induced male C57BL/6 mouse model of inflammatory bowel disease assessed as upregulation of ZO-1 expression in colon at 50 to 100 microM/Kg by immunohistochemical analysis; type: functional, organism-based; details: dose 50-100 µM/Kg
[42] = system: Mus musculus; experiment: Antiinflammatory activity in DSS-induced male C57BL/6 mouse model of inflammatory bowel disease assessed as inhibition of MPO expression at 50 to 100 microM/Kg, po by immunohistochemical analysis; type: functional, organism-based; details: dose 50-100 µM/Kg

CC(=O)OC[C@H]1O[C@@H](OC2=C(C)OC(=C3CCOCC3)C2=O)[C@H](OC(C)=O)[C@@H](OC(C)=O)[C@@H]1OC(C)=O
CC50 [1]: 71.9 µM
IC50 [2]: 26.4 µM
selectivity ratio [3]: 3.11
IC50 [4]: 43.6 µM
selectivity ratio [5]: 1.87
Activity [6]: Active
Activity [7]: 26.3%
Activity [8]: 30.5%

CC1=C(O)C(=O)C(=C2CCCC2)O1
CC50 [1]: 248 µM
IC50 [2]: > 100 µM
IC50 [4]: > 100 µM
Activity [9]: Active
Activity [10]: Active
Activity [11]: Active
Activity [12]: 98.4%
Activity [13]: 99.2%

CC(C)=C1OC(C)=C(O[C@@H]2O[C@H](COC(=O)C(C)(C)C)[C@@H](OC(=O)C(C)(C)C)[C@H](OC(=O)C(C)(C)C)[C@H]2OC(=O)C(C)(C)C)C1=O
CC50 [1]: > 200 µM
IC50 [2]: > 100 µM
IC50 [4]: > 100 µM
Activity [14]: 41.6%
Activity [15]: 3.2%

CC1=C(O)C(=O)C(=C2CCOCC2)O1
CC50 [1]: 232 µM
IC50 [2]: > 100 µM
IC50 [4]: > 100 µM

O=C(O)c1cc(/N=N/c2ccc(S(=O)(=O)Nc3ccccn3)cc2)ccc1O [SULFASALAZINE]
Activity [16]: 86.7%
Activity [14]: 24%
Activity [15]: 9.5%

CC(C)=C1OC(C)=C(O)C1=O
CC50 [1]: 110 µM
IC50 [2]: 23.1 µM
selectivity ratio [3]: 4.77
IC50 [4]: 62.1 µM
selectivity ratio [5]: 1.82
Activity [17]: Non-toxic
Activity [18]: Non-toxic
Activity [19]: Non-toxic
Activity [20]: Non-toxic
Activity [21]: Non-toxic
Activity [22]: Non-toxic
Activity [23]: Non-toxic
Activity [24]: Non-toxic
Activity [25]: Non-toxic
Activity [26]: Non-toxic
Activity [27]: Non-toxic
Activity [28]: Non-toxic
Activity [29]: Active
Activity [30]: Active
Activity [31]: Active
Activity [32]: inactive
Activity [33]: Active
Activity [34]: Active
Activity [35]: Active
Activity [36]: Active
Activity [37]: Active
Activity [38]: Active
Activity [39]: Active
Activity [40]: Active
Activity [41]: Active
Activity [42]: Active

C/C=C/C[C@@H](C)[C@@H](O)[C@H]1C(=O)N[C@@H](CC)C(=O)N(C)CC(=O)N(C)[C@@H](CC(C)C)C(=O)N[C@@H](C(C)C)C(=O)N(C)[C@@H](CC(C)C)C(=O)N[C@@H](C)C(=O)N[C@H](C)C(=O)N(C)[C@@H](CC(C)C)C(=O)N(C)[C@@H](CC(C)C)C(=O)N(C)[C@@H](C(C)C)C(=O)N1C [CYCLOSPORINE]
IC50 [2]: 0.46 µM

CC(=O)OC[C@H]1O[C@@H](OC2=C(C)OC(=C3CCCCC3)C2=O)[C@H](OC(C)=O)[C@@H](OC(C)=O)[C@@H]1OC(C)=O
CC50 [1]: 35.6 µM
IC50 [2]: 54 µM
selectivity ratio [3]: 0.79
IC50 [4]: 4720 µM
selectivity ratio [5]: 0.92
Activity [6]: Active
Activity [7]: 30.7%
Activity [8]: 54.8%
